{
  "source": "patent US9302999B2",
  "about": "“Substituted triazoles as herbicides” (E. I. DU PONT DE NEMOURS AND COMPANY, priority 2012, dated 2016)",
  "type_in_all_cases": "in vivo",
  "key": {"[1]": {"tested_on": "oilseed rape (Brassica napus)", "assay": "Test D pre-/postemergence: oilseed rape", "summary_of_the_method": "(§1)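 Applied as a non-phytotoxic solvent formulation with surfactant, compounds were tested preemergence in silt loam and postemergence on seedlings 2 to 18 cm high in peat-vermiculite medium. Evaluation was visual, 0 meaning no effect and 100 complete control, at 14 to 21 days.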"}, "[2]": {"tested_on": "barley, winter (winter barley, Hordeum vulgare)", "assay": "Test D pre-/postemergence: barley, winter", "summary_of_the_method": "as §1"}, "[3]": {"tested_on": "bluegrass (annual bluegrass, Poa annua)", "assay": "Test D pre-/postemergence: bluegrass", "summary_of_the_method": "as §1"}, "[4]": {"tested_on": "speedwell (bird's-eye speedwell, Veronica persica)", "assay": "Test D pre-/postemergence: speedwell", "summary_of_the_method": "as §1"}, "[5]": {"tested_on": "common (oilseed) sunflower (Helianthus annuus)", "assay": "Test C pre-/postemergence: sunflower", "conditions": "Preemergence", "summary_of_the_method": "(§2)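 Visual injury scored 0–100 (100 = complete control) against untreated controls after 13–15 greenhouse days. Surfactant-containing solvent formulations applied either to soil after sowing (loam/sand) or over 1- to 4-leaf plants, 2–18 cm tall.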"}, "[6]": {"tested_on": "deadnettle (henbit deadnettle, Lamium amplexicaule)", "assay": "Test C postemergence: deadnettle", "summary_of_the_method": "(§3)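 Response values are visual ratings, 0 (no effect) to 100 (complete control), made by comparison with untreated controls 13 to 15 days after postemergence treatment of greenhouse-grown potted plants that were 2 to 18 cm high at spraying.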"}, "[7]": {"tested_on": "deadnettle (henbit deadnettle, Lamium amplexicaule)", "assay": "Test D pre-/postemergence: deadnettle", "summary_of_the_method": "as §1"}, "[8]": {"tested_on": "woolly cupgrass (Eriochloa villosa)", "assay": "Test C pre-/postemergence: woolly cupgrass", "summary_of_the_method": "as §2"}, "[9]": {"tested_on": "barley (winter barley, Hordeum vulgare)", "assay": "Test C postemergence: barley", "summary_of_the_method": "as §3"}, "[10]": {"tested_on": "chickweed (common chickweed, Stellaria media)", "assay": "Test D pre-/postemergence: chickweed", "conditions": "Postemergence", "summary_of_the_method": "as §1"}, "[11]": {"conditions": "Postemergence, 31 g ai/ha, scale 0 to 100 (0 no effect, 100 complete control)"}, "[12]": {"conditions": "Postemergence, 62 g ai/ha, scale 0 to 100 (0 no effect, 100 complete control)"}, "[13]": {"conditions": "Postemergence, 125 g ai/ha, scale 0 to 100, 0 no effect, 100 complete control"}, "[14]": {"conditions": "Postemergence, 250 g ai/ha, scale 0 to 100 (0 no effect, 100 complete control)"}, "[15]": {"conditions": "Postemergence, 16 g ai/ha, scale 0 to 100"}, "[16]": {"conditions": "Preemergence, 16 g ai/ha, scale 0 to 100 (0 no effect, 100 complete control)"}, "[17]": {"conditions": "Preemergence, 31 g ai/ha, scale 0 to 100 (0 no effect, 100 complete control)"}, "[18]": {"conditions": "Preemergence, 62 g ai/ha, scale 0 to 100"}, "[19]": {"conditions": "Preemergence, 125 g ai/ha, scale 0 to 100"}, "[20]": {"conditions": "Preemergence, 250 g ai/ha, scale 0 to 100"}, "[21]": {"conditions": "125 g ai/ha, scale 0 to 100, 0 no effect, 100 complete control"}, "[22]": {"conditions": "31 g ai/ha, scale 0 to 100 (0 no effect, 100 complete control)"}, "[23]": {"conditions": "62 g ai/ha, scale 0 to 100 (0 no effect, 100 complete control)"}},
  "data": [
    {"smiles": "CCOc1nn(-c2ccc(F)cc2)nc1Cc1ccnc(C(F)F)c1", "note": "[Compound 195]", "values": [
      {"measurement": "Plant response rating: Oilseed Rape", "setting": "[1]; [11]", "value": 85},
      {"measurement": "Plant response rating: Oilseed Rape", "setting": "[1]; [12]", "value": 95},
      {"measurement": "Plant response rating: Oilseed Rape", "setting": "[1]; [13]", "value": 100},
      {"measurement": "Plant response rating: Oilseed Rape", "setting": "[1]; [14]", "value": 100},
      {"measurement": "Plant response rating, Oilseed Rape", "setting": "[1]; [15]", "value": 70},
      {"measurement": "Plant response rating, Oilseed Rape", "setting": "[1]; [16]", "value": 0},
      {"measurement": "Plant response rating, Oilseed Rape", "setting": "[1]; [17]", "value": 0},
      {"measurement": "Plant response rating, Oilseed Rape", "setting": "[1]; [18]", "value": 0},
      {"measurement": "Plant response rating, Oilseed Rape", "setting": "[1]; [19]", "value": 10},
      {"measurement": "Plant response rating, Oilseed Rape", "setting": "[1]; [20]", "value": 20},
      {"measurement": "Plant response rating: Barley, Winter", "setting": "[2]; [11]", "value": 10},
      {"measurement": "Plant response rating: Barley, Winter", "setting": "[2]; [12]", "value": 15},
      {"measurement": "Plant response rating: Barley, Winter", "setting": "[2]; [13]", "value": 30},
      {"measurement": "Plant response rating: Barley, Winter", "setting": "[2]; [14]", "value": 45},
      {"measurement": "Plant response rating, Barley, Winter", "setting": "[2]; [15]", "value": 0},
      {"measurement": "Plant response rating, Barley, Winter", "setting": "[2]; [16]", "value": 0},
      {"measurement": "Plant response rating, Barley, Winter", "setting": "[2]; [17]", "value": 0},
      {"measurement": "Plant response rating, Barley, Winter", "setting": "[2]; [18]", "value": 0},
      {"measurement": "Plant response rating, Barley, Winter", "setting": "[2]; [19]", "value": 0},
      {"measurement": "Plant response rating, Barley, Winter", "setting": "[2]; [20]", "value": 20},
      {"measurement": "Plant response rating: Bluegrass", "setting": "[3]; [11]", "value": 20},
      {"measurement": "Plant response rating: Bluegrass", "setting": "[3]; [12]", "value": 40},
      {"measurement": "Plant response rating: Bluegrass", "setting": "[3]; [13]", "value": 60},
      {"measurement": "Plant response rating: Bluegrass", "setting": "[3]; [14]", "value": 80},
      {"measurement": "Plant response rating, Bluegrass", "setting": "[3]; [15]", "value": 10},
      {"measurement": "Plant response rating, Bluegrass", "setting": "[3]; [16]", "value": 0},
      {"measurement": "Plant response rating, Bluegrass", "setting": "[3]; [17]", "value": 10},
      {"measurement": "Plant response rating, Bluegrass", "setting": "[3]; [18]", "value": 20},
      {"measurement": "Plant response rating, Bluegrass", "setting": "[3]; [19]", "value": 50},
      {"measurement": "Plant response rating, Bluegrass", "setting": "[3]; [20]", "value": 80},
      {"measurement": "Plant response rating: Speedwell", "setting": "[4]; [11]", "value": 100},
      {"measurement": "Plant response rating: Speedwell", "setting": "[4]; [12]", "value": 100},
      {"measurement": "Plant response rating: Speedwell", "setting": "[4]; [13]", "value": 100},
      {"measurement": "Plant response rating: Speedwell", "setting": "[4]; [14]", "value": 100},
      {"measurement": "Plant response rating, Speedwell", "setting": "[4]; [15]", "value": 100},
      {"measurement": "Plant response rating, Speedwell", "setting": "[4]; [16]", "value": 30},
      {"measurement": "Plant response rating, Speedwell", "setting": "[4]; [17]", "value": 100},
      {"measurement": "Plant response rating, Speedwell", "setting": "[4]; [18]", "value": 100},
      {"measurement": "Plant response rating, Speedwell", "setting": "[4]; [19]", "value": 100},
      {"measurement": "Plant response rating, Speedwell", "setting": "[4]; [20]", "value": 100},
      {"measurement": "Plant response rating, Sunflower", "setting": "[5]; 31 g ai/ha, scale 0 (no effect) to 100 (complete control)", "value": 0},
      {"measurement": "Plant response rating, Sunflower", "setting": "[5]; 62 g ai/ha, scale of 0 to 100, 0 is no effect, 100 is complete control", "value": 15},
      {"measurement": "Plant response rating, Sunflower", "setting": "[5]; [21]", "value": 15},
      {"measurement": "Plant response rating, Sunflower", "setting": "[5]; 250 g ai/ha, scale 0 to 100, 0 no effect, 100 complete control", "value": 20},
      {"measurement": "Plant response rating, Deadnettle", "setting": "[6]; [22]", "value": 100},
      {"measurement": "Plant response rating, Deadnettle", "setting": "[6]; [23]", "value": 100},
      {"measurement": "Plant response rating, Deadnettle", "setting": "[6]; [21]", "value": 100},
      {"measurement": "Plant response rating, Deadnettle", "setting": "[6]; 250 g ai/ha, scale 0 to 100", "value": 100},
      {"measurement": "Plant response rating: Deadnettle", "setting": "[7]; [11]", "value": 65},
      {"measurement": "Plant response rating: Deadnettle", "setting": "[7]; [12]", "value": 75},
      {"measurement": "Plant response rating: Deadnettle", "setting": "[7]; [13]", "value": 75},
      {"measurement": "Plant response rating: Deadnettle", "setting": "[7]; [14]", "value": 90},
      {"measurement": "Plant response rating, Deadnettle", "setting": "[7]; [15]", "value": 60},
      {"measurement": "Plant response rating, Deadnettle", "setting": "[7]; [16]", "value": 60},
      {"measurement": "Plant response rating, Deadnettle", "setting": "[7]; [17]", "value": 60},
      {"measurement": "Plant response rating, Deadnettle", "setting": "[7]; [18]", "value": 60},
      {"measurement": "Plant response rating, Deadnettle", "setting": "[7]; [19]", "value": 100},
      {"measurement": "Plant response rating, Deadnettle", "setting": "[7]; [20]", "value": 100},
      {"measurement": "Plant response rating, Cupgrass, Woolly", "setting": "[8]; [11]", "value": 50},
      {"measurement": "Plant response rating, Cupgrass, Woolly", "setting": "[8]; [12]", "value": 65},
      {"measurement": "Plant response rating, Cupgrass, Woolly", "setting": "[8]; [13]", "value": 75},
      {"measurement": "Plant response rating, Cupgrass, Woolly", "setting": "[8]; Postemergence, 250 g ai/ha, scale 0 to 100", "value": 75},
      {"measurement": "Plant response rating, Cupgrass, Woolly", "setting": "[8]; Preemergence, 31 g ai/ha, scale 0 (no effect) to 100 (complete control)", "value": 20},
      {"measurement": "Plant response rating, Cupgrass, Woolly", "setting": "[8]; Preemergence, 62 g ai/ha, scale of 0 to 100, 0 is no effect, 100 is complete control", "value": 95},
      {"measurement": "Plant response rating, Cupgrass, Woolly", "setting": "[8]; Preemergence, 125 g ai/ha, scale 0 to 100, 0 no effect, 100 complete control", "value": 95},
      {"measurement": "Plant response rating, Cupgrass, Woolly", "setting": "[8]; Preemergence, 250 g ai/ha, scale 0 to 100, 0 no effect, 100 complete control", "value": 98},
      {"measurement": "Plant response rating, Barley", "setting": "[9]; [22]", "value": 15},
      {"measurement": "Plant response rating, Barley", "setting": "[9]; [23]", "value": 20},
      {"measurement": "Plant response rating, Barley", "setting": "[9]; [21]", "value": 35},
      {"measurement": "Plant response rating, Barley", "setting": "[9]; 250 g ai/ha, scale 0 to 100", "value": 35},
      {"measurement": "Plant response rating: Chickweed", "setting": "[10]; [22]", "value": 40},
      {"measurement": "Plant response rating: Chickweed", "setting": "[10]; [23]", "value": 60},
      {"measurement": "Plant response rating: Chickweed", "setting": "[10]; [21]", "value": 85},
      {"measurement": "Plant response rating: Chickweed", "setting": "[10]; 250 g ai/ha, scale 0 to 100 (0 no effect, 100 complete control)", "value": 90},
      {"measurement": "Plant response rating, Chickweed", "setting": "[10]; 16 g ai/ha, scale 0 to 100", "value": 30}
    ]}
  ]
}
